Measured values from patent US5663157A, “22-en-25-oxa derivatives in the vitamin D series, process for their production, pharmaceutical preparations containing these derivatives as well as their use as pharmaceutical agents” (Schering Aktiengesellschaft, priority 1992, dated 1997).

What was measured:
HL 60 cells = experiment: HL 60 differentiation induction (NBT reduction to formazan); format: cell-based; settings: Homo sapiens, 96 hours incubation, formazan at 650 nm, read-out: ED50 (differentiation induction of HL 60 cells to macrophages)
Protocol: HL 60 cells are cultivated in tissue-culture medium (RPMI-10% fetal calf serum) at 37° C. in an atmosphere of 5% CO2 in air.
For substance testing, the cells are centrifuged off and 2.8 ×10^5 cells/ml in phenol red-free tissue-culture medium are taken up. The test substances are dissolved in ethanol and diluted with tissue-culture medium without phenol red to the desired concentration. The dilution stages are mixed with the cell suspension in a ratio of 1:10 and pipetted in 100 μl each of this cell suspension mixed with substance in an indentation of a 96-hole plate. For control, a cell suspension is analogously mixed with the solvent.
After incubation over 96 hours at 37° C. in 5% CO2 in air, 100 μl of an NBT-TPA solution (nitro blue tetrazolium (NBT), final concentration in the batch of 1 mg/ml, tetradecanoyl phorbol myristate-13-acetate (TPA), final concentration in the batch of 2 ×10^-7 mol/l) is pipetted in the cell suspension in every indentation of the 96-hole plate.
By incubation over 2 hours at 37° C. and 5% CO2 in air, NBT is reduced to insoluble formazan because of the intracellular oxygen radical release, stimulated by TPA, in the cells differentiated to macrophages.
For completion of the reaction, the indentations of the 96-hole plate are suctioned off, and the adhering cells are fixed by adding methanol and dried after fixing.
To dissolve the formed intracellular formazan crystals, 100 μl of potassium hydroxide (2 val/l) and 100 μl of dimethyl sulfoxide are pipetted in each indentation and ultrasonically treated for 1 minute. The concentration of formazan is measured by spectrophotometry at 650 nm.
The concentration of formed formazan is regarded as a measurement for the differentiation induction of the HL 60 cells to macrophages.

[1] = hypercalcemic and hypercalcinuric activity in vivo; parameters: species or system Wistar rats; settings: for calcium excretion in urine, second collecting phase (16-22 hours): after oral calcium, solvent control 1.5 μmol/animal; for calcium excretion in urine, first collecting phase (0-16 hours): solvent control 12.2 μmol/animal; for calcium excretion in second collecting phase (16-22 hours), result in words: 200 μg/kg s.c. versus calcitriol 2 μg/kg and solvent control; for serum calcium concentration: 22 hours after administration, solvent control 3.0 mmol/l; for hypercalcemia induction: 200 μg/kg subcutaneous; for hypercalcemia induction / in vivo potency reduced by factor in comparison to calcitriol: male Wistar rats; for in vivo potency reduced by factor in comparison to calcitriol: calcium metabolism, subcutaneous
Protocol: To assess the corresponding activities of the substances according to the invention, the hypercalcemic and hypercalcinuric activity in vivo is determined. […] Urine is collected in the period of 0-16 hours after substance administration. Then, the animals orally receive 1 μmol of calcium in 6.5% klucel (hydroxypropyl cellulose) and again urine is collected for the period of 16-22 hours after substance administration. The urine volume of each fraction is measured to measure the absolute calcium excretion. After 22 hours, the animals are killed by decapitation and the blood is collected. The calcium concentration in serum and urine is determined by flame photometry.

SMILES	EC50 (HL 60 cells) [nM]	calcium excretion in urine, second collecting phase (16-22 hours) ([1]; calcitriol 2 μg/kg s.c.) [μmol/animal]	calcium excretion in urine, first collecting phase (0-16 hours) ([1]; calcitriol 2 μg/kg s.c.) [μmol/animal]	calcium excretion in second collecting phase (16-22 hours), result in words [1]	serum calcium concentration ([1]; 200 μg/kg s.c.) [mmol/L]	calcium excretion in urine, second collecting phase (16-22 hours) ([1]; 200 μg/kg s.c.) [μmol/animal]	calcium excretion in urine, first collecting phase (0-16 hours) ([1]; 200 μg/kg s.c.) [μmol/animal]	hypercalcemia induction [1]	in vivo potency reduced by factor in comparison to calcitriol [1]
C=C1/C(=C\C=C2/CCC[C@]3(C)[C@@H]([C@H](C)CCCC(C)(C)O)CC[C@@H]23)C[C@@H](O)C[C@@H]1O [calcitriol, 1α,25-Dihydroxycholecalciferol, reference compound]	1.6	25.1	40.6						
C=C1/C(=C\C=C2/CCC[C@]3(C)[C@@H]([C@H](C)/C=C/COCC(C)(C)O)CC[C@@H]23)C[C@@H](O)C[C@@H]1O [compound 16, (5Z,7E,22E)-(1S,3R)-24-(2-Hydroxy-2-methylpropoxy)-9,10-secochola-5,7,10(19),22-tetraene-1,3-diol]	3.2			not increased relative to the solvent control	3.0	3.6	62.4	no hypercalcemia	> 100
C=C1/C(=C\C=C2/CCC[C@]3(C)[C@@H]([C@H](C)/C=C/COCC(O)(CC)CC)CC[C@@H]23)C[C@@H](O)C[C@@H]1O [compound 17, (5Z,7E,22E)-(1S,3R)-24-(2-Ethyl-2-hydroxybutoxy)-9,10-secochola-5,7,10(19),22-tetraene-1,3-diol]	1			not significantly different to the standard calcitriol	3.4	47.0	61.7	slight hypercalcemia	~100
